Source: paper PMC6563033, “Purification and Characterization of Antioxidant Peptides Derived from Protein Hydrolysate of the Marine Bivalve Mollusk Tergillarca granosa” (Marine Drugs, 2019)
Where two headings read alike, the source gives them in different places. Residues, ends and D or L forms follow the SMILES beside them. No end group written: not given here.

Columns and labels:
[1] = cited from earlier work
[2] = cited from earlier work; remark: listed apart in the source
From the text: EC50 values of TGP3 and TGP4 were lower than those of APs from protein ...

[3] = cited from earlier work; remark: listed apart in the source
Description: Defatted muscle of blood cockle was hydrolyzed under a two-enzyme system (Alcalase treatment for 1.5 h following Neutrase treatment for 1.5 h), and the degree of hydrolysis (DH) and yield of the resulted hydrolysate (referred to as TGH) were 19.32 ± 1.37% and 9.62 ± 0.86% (on the basis of defatted muscle), respectively. […] In addition, the EC50 values of TGP3 and TGP4 were lower than those o ...

[4] = cited from earlier work; for EC50 (half elimination ratio) on ABTS cation radical: APs from blue-spotted stingray
From the text: Bioactive peptides (BPs), which in general range from 2 to 20 amino acids in size, are fragments of proteins and become active when released during enzymatic hydrolysis, gastrointestinal transit, and fermentation. […] Furthermore, EC50 values of TGP3 and TGP4 were lower than those of APs from protein hydrolysates of skip ...

[5] = cited from earlier work; for Change of activity during heat treatment: heat 25–100 °C; for Change of activity during pH treatment: pH 3–11
From the text: Heat treatment is a common method of food processing and APs are helpful to lengthen the food shelf-life if they can keep their activity after heating. Peptides with large-scale pH stability can be incorporated into diverse liquid products and keep their bioactivity. Therefore, thermal and pH stability of peptides are important indexes for their application in functional products, and characterization of those properties can help to design their potential processing parameters. ATSHH from protein hydrolysate of sandfish (Arctoscopus japonicus) partially lost its DPPH radical scaven ...

[6] = Simulated GI digestion (pepsin + pancreatin), read out as hydroxyl radical scavenging EC50; type: in vitro ADME; settings: two-stage digestion: pepsin 1.0 h + pancreatin 2.0 h; judged from hydroxyl radical EC50
Description: First, 1.0 mL of a 1.87 mM 1,10-phenanthroline solution and 2.0 mL of the sample were added to a screw-capped tube and mixed. Then, 1.0 mL of a FeSO4·7H2O solution (1.87 mM) was added to the mixture. The reaction was initiated by adding 1.0 mL of H2O2 (0.03%, v/v). After being incubated at 37 °C for 60 min in a water bath, the absorbance of the reaction mixture was measured at 536 nm against a reagent blank. The reaction mixture without any antioxidant was used as the negative control, and a mixture without H2O2 was used as the blank. The hydroxyl radical scavenging activity was calculated using the following formula: Hydroxyl radical scavenging activity (%) = [(As − An)/(Ab − An)] × 100% (3) where As, An, and Ab are the absorbance values determined at 536 nm of the sample, the negative control, and the blank after the reaction, respectively.
Stability of TGP3 and TGP4 were measured according to the previous method with minor modifications. A temperature-controlled water bath at 25, 37, 60, 80, or 100 °C for 0.5 h was used to measure thermostability of TGP3 and TGP4. Effects of pH treatments (pH 3, 5, 7, 9, or 11) of sample solutions incubated at 25 °C for 2.5 h were assessed to analyze the pH stability of TGP3 and TGP4. […] Hydroxyl radical scavenging activities (EC50 value) of the treated TGP3 and TGP4 were measured according to the previous methods.

[7] = APs from miiuy croaker swim bladder
[8] = APs from croceine croaker scale
[9] = APs from spotless smoothhound (Mustelus griseus) muscle

NFWWP [literature AP from miiuy croaker muscle]
EC50 on superoxide anion radical ([1]; APs from miiuy croaker muscle): 840 mg/L

GFEPY [literature AP from miiuy croaker swim bladder]
EC50 on superoxide anion radical [1, 7]: 870 mg/L

LMGQW [literature AP from monkfish muscle]
EC50 on superoxide anion radical ([1]; APs from monkfish muscle): 42 mg/L
EC50 on hydroxyl radical ([2]; APs from monkfish muscle): 40 mg/L

GPAGPAG [literature AP from croceine croaker scale]
EC50 on superoxide anion radical [1, 8]: 99 mg/L
EC50 on hydroxyl radical [2, 8]: 240 mg/L

YFLWP [literature AP from miiuy croaker muscle]
EC50 on superoxide anion radical ([1]; APs from miiuy croaker muscle): 3080 mg/L

YPPAK [literature AP from blue mussel]
EC50 on DPPH radical ([3]; AP from blue mussel): 2620 mg/L

NWDMEKIWD [literature AP from skate muscle]
EC50 on DPPH radical ([3]; AP from skate muscle): 289 mg/L

ELLI [literature AP from spotless smoothhound muscle]
EC50 on hydroxyl radical [2, 9]: 117.3 mg/L

PSYV [literature AP from weatherfish loach]
EC50 on hydroxyl radical ([2]; AP from weatherfish loach): 2640 mg/L

MYPGLA [literature peptide from blue-spotted stingray]
EC50 (half elimination ratio) on ABTS cation radical [4]: 12880 mg/L
Change of activity during heat treatment [5]: no significant (p > 0.05) differences
Change of activity during pH treatment [5]: no significant (p > 0.05) differences

FTGMD [literature AP from miiuy croaker swim bladder]
EC50 on superoxide anion radical [1, 7]: 3040 mg/L

GFPSG [literature AP from croceine croaker scale]
EC50 on superoxide anion radical [1, 8]: 151 mg/L
EC50 on hydroxyl radical [2, 8]: 107 mg/L

FIGP [literature AP from bluefin leatherjacket skin]
EC50 on DPPH radical ([3]; AP from bluefin leatherjacket skin): 118 mg/L

FMPLH [literature AP from miiuy croaker muscle]
EC50 on DPPH radical ([3]; APs from miiuy croaker muscle): 480 mg/L
EC50 on superoxide anion radical ([1]; APs from miiuy croaker muscle): 150 mg/L
EC50 on hydroxyl radical ([2]; APs from miiuy croaker muscle): 800 mg/L

GAEGFIF [literature AP from skipjack tuna bone]
EC50 on DPPH radical ([3]; APs from skipjack tuna bone): 300 mg/L
EC50 on hydroxyl radical ([2]; APs from skipjack tuna bone): 320 mg/L

N[C@@H](Cc1c[nH]c2ccccc12)C(=O)N1CCC[C@H]1C(=O)N1CCC[C@H]1C(=O)N[C@@H](CC(=O)O)C(=O)O [TGP-4, Trp-Pro-Pro-Asp] (H-WPPD-OH)
Susceptibility to GI digestive enzymes [6]: partially susceptible to be degradated by GI digestive enzymes

FPYLRH [literature AP from miiuy croaker swim bladder]
EC50 on superoxide anion radical [1, 7]: 340 mg/L
EC50 on hydroxyl radical [2, 7]: 680 mg/L

GIISH [literature AP from spotless smoothhound muscle]
EC50 on hydroxyl radical [2, 9]: 76.9 mg/L

IVAGPQ [literature AP from skate cartilage]
EC50 on ABTS cation radical ([4]; APs from skate cartilage): 1290 mg/L

VGGRP [literature AP from grass carp skin]
EC50 on hydroxyl radical ([2]; APs from grass carp skin): 2055 mg/L

LGLNGDDVN [literature AP from conger eel]
EC50 on hydroxyl radical ([2]; AP from conger eel): 687 mg/L

PYSFK [literature AP from grass carp skin]
EC50 on hydroxyl radical ([2]; APs from grass carp skin): 2283 mg/L

FLNEFLHV [literature AP from salmon]
EC50 on ABTS cation radical ([4]; AP from salmon): 1548 mg/L

GIEWA [literature AP from miiuy croaker swim bladder]
EC50 on DPPH radical ([3]; AP from miiuy croaker swim bladder): 780 mg/L
EC50 on superoxide anion radical [1, 7]: 300 mg/L
EC50 on hydroxyl radical [2, 7]: 710 mg/L

GPDGR [literature AP from skipjack tuna bone]
EC50 on superoxide anion radical ([1]; APs from skipjack tuna bone): 1440 mg/L
EC50 on ABTS cation radical ([4]; APs from skipjack tuna bone): 1070 mg/L

WAFAPA [literature peptide from blue-spotted stingray]
EC50 (half elimination ratio) on ABTS cation radical [4]: 8330 mg/L
Change of activity during heat treatment [5]: no significant (p > 0.05) differences
Change of activity during pH treatment [5]: no significant (p > 0.05) differences

NADFGLNGLEGLA [literature AP from giant squid]
EC50 on hydroxyl radical ([2]; AP from giant squid): 612 mg/L

FSGLR [literature AP from miiuy croaker swim bladder]
EC50 on superoxide anion radical [1, 7]: 3350 mg/L

GADIVA [literature AP from skipjack tuna bone]
EC50 on DPPH radical ([3]; APs from skipjack tuna bone): 570 mg/L
EC50 on hydroxyl radical ([2]; APs from skipjack tuna bone): 250 mg/L

ATSHH [literature peptide from protein hydrolysate of sandfish (Arctoscopus japonicus)]
Retention of activity after pH treatment ([5]; basic (pH 10–12) and acidic (pH 2) conditions): moderate losses of activity
Retention of DPPH radical scavenging activity after heating ([5]; incubated at 50–90 °C): partially lost its DPPH radical scavenging activity

EWPAQ [literature AP from monkfish muscle]
EC50 on hydroxyl radical ([2]; APs from monkfish muscle): 269 mg/L

FIMGPY [literature AP from skate cartilage]
EC50 on ABTS cation radical ([4]; APs from skate cartilage): 1040 mg/L

AGPM [literature AP from skipjack tuna bone]
EC50 on superoxide anion radical ([1]; APs from skipjack tuna bone): 1680 mg/L
EC50 on ABTS cation radical ([4]; APs from skipjack tuna bone): 1480 mg/L

GFRGTIGLVG [literature AP from croceine croaker scale]
EC50 on hydroxyl radical [2, 8]: 293 mg/L

GFVG [literature AP from spotless smoothhound muscle]
EC50 on ABTS cation radical ([4]; APs from spotless smoothhound muscle, no reference given): 1305.5 mg/L

MDLFTE [TGP-3, Met-Asp-Leu-Phe-Thr-Glu]
Susceptibility to GI digestive enzymes [6]: partially susceptible to be degradated by GI digestive enzymes

FLHRP [literature AP from monkfish muscle]
EC50 on superoxide anion radical ([1]; APs from monkfish muscle): 101 mg/L
EC50 on hydroxyl radical ([2]; APs from monkfish muscle): 114 mg/L

HFGBPFH [literature AP from grass carp skin]
EC50 on DPPH radical ([3]; AP from grass carp skin): 200 mg/L

KFPE [literature AP from spotless smoothhound muscle]
EC50 on hydroxyl radical [2, 9]: 151 mg/L

FWKVV [literature AP from miiuy croaker muscle]
EC50 on DPPH radical ([3]; APs from miiuy croaker muscle): 850 mg/L
EC50 on superoxide anion radical ([1]; APs from miiuy croaker muscle): 290 mg/L
EC50 on hydroxyl radical ([2]; APs from miiuy croaker muscle): 970 mg/L
